Results taken from ChEMBL document CHEMBL3877305, “Improved Potency of Indole-Based NorA Efflux Pump Inhibitors: From Serendipity toward Rational Design and Development” (J Med Chem, 2017).
Values after ≈ are worked out from the molar mass of the structure shown.

Legend:
Staphylococcus aureus = test: Antibacterial activity against Staphylococcus aureus 1199B by microdilution method; type: functional
[1] = molecular target: T1, Quinolone resistance protein NorA (Staphylococcus aureus) (UniProt P0A0J7); test: Inhibition of Staphylococcus aureus 1199B NorA assessed as inhibition of ethidium bromide efflux at 50 uM measured after 5 mins by fluorometric method relative to control
T1 sequence (whole entry): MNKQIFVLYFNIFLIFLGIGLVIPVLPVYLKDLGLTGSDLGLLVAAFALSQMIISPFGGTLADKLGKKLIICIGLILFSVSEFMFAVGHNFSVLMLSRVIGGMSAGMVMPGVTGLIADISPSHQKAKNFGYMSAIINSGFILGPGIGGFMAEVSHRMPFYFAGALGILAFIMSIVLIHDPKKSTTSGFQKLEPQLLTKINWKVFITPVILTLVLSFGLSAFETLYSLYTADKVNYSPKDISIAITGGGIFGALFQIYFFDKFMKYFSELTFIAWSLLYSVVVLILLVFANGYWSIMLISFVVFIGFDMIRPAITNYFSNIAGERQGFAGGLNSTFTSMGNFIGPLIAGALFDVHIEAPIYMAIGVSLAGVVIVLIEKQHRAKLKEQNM

[2] = molecular target: T2, Quinolone resistance protein NorA (Staphylococcus aureus, UniProt P0A0J7); test: Inhibition of Staphylococcus aureus 1199B NorA assessed as inhibition of ethidium bromide efflux measured after 5 mins by fluorometric method
T2 sequence (P0A0J7 whole entry): T1 sequence (whole entry)

[3] = molecular target: T1, Quinolone resistance protein NorA (Staphylococcus aureus); test: Inhibition of Staphylococcus aureus 1199B NorA assessed as potentiation of ciprofloxacin-induced antibacterial activity by checkerboard assay
[4] = Metabolic stability in human liver microsomes at 10 uM preincubated for 10 mins followed by NADPH addition measured after 30 mins by HPLC-MS/MS method; type: ADME; details: 0.5 h
[5] = Dissociation constant, pKa of the compound; type: physicochemical
[6] = Solubility in D2O solution at 25 degC by 1H NMR analysis; type: physicochemical

SMILES	MIC (Staphylococcus aureus) [µg/mL]	inhibition [1] [%]	IC50 [2] [µM]	further results
CCOC(=O)c1c(C)n(Cc2ccccc2)c2ccc(OCCCNCc3ccccc3)cc12	> 100			
CCOC(=O)c1c(C)n(Cc2ccccc2)c2ccc(OCCCNCc3nnnn3-c3ccccc3)cc12		22.8		
CCOC(=O)c1c(C)n(Cc2ccccc2)c2ccc(OCCNCc3ccc(Oc4nnnn4-c4ccccc4)c(OC)c3)cc12		50.3		
CCOC(=O)c1c(C)n(Cc2ccccc2)c2ccc(OCCCN3CCN(CCCOc4ccccc4-c4ccccc4)CC3)cc12		12.1		
CCOC(=O)c1c(C)n(Cc2ccccc2)c2ccc(OCC(O)CNCC(O)COc3ccc4c(c3)c(C(=O)OCC)c(C)n4Cc3ccccc3)cc12 (stereo not given)		78 to 100	19.9	
CCOC(=O)c1c(C)n(Cc2ccccc2)c2ccc(OCCCN)cc12	> 100			
CCOC(=O)c1c(C)n(Cc2ccccc2)c2ccc(OCCCNCc3ccc(Oc4nnnn4-c4ccccc4)c(OC)c3)cc12	> 100	95 to 96.5	1.8 to 1.82	fractional inhibitory concentration index (FICI) [3]: 0.27; Stability [4]: Stable; pKa [5]: 7.21; solubility [6]: < 2 µM
CCOC(=O)c1c(C)n(Cc2ccccc2)c2ccc(OCCCN3CCCCC3)cc12	> 100			fractional inhibitory concentration index (FICI) [3]: 0.28
COc1cc(CNCCO)ccc1Oc1nnnn1-c1ccccc1		< 10		
CCOC(=O)c1c(C)n(Cc2ccccc2)c2ccc(OCCN3CCN(CCCOc4ccccc4-c4ccccc4)CC3)cc12		27.1		
CCOC(=O)c1c(C)n(Cc2ccccc2)c2ccc(OCCCCNCc3ccc(Oc4nnnn4-c4ccccc4)c(OC)c3)cc12	> 100	101	2.02	fractional inhibitory concentration index (FICI) [3]: 0.25; Stability [4]: Stable; pKa [5]: 8.2; solubility [6]: < 2 µM
CCOC(=O)c1c(C)n(Cc2ccccc2)c2ccc(OCC(O)CNCc3ccc(Oc4nnnn4-c4ccccc4)c(OC)c3)cc12 (stereo not given)	> 100	96.9	4.93	fractional inhibitory concentration index (FICI) [3]: 0.13
CCOC(=O)c1c(C)n(Cc2ccccc2)c2ccc(OCCCN3CCN(CCCOc4ccc(F)cc4)CC3)cc12		53.7		
OCCCN1CCN(CCCOc2ccccc2-c2ccccc2)CC1		< 10		
CCOC(=O)c1c(C)n(Cc2ccccc2)c2ccc(OCCCNCc3ccc(F)c(OC)c3)cc12	6.3 (≈ 12.5 µM)	67	3.83	
CCOC(=O)c1c(C)n(Cc2ccccc2)c2ccc(OCCN3CCN(CCOc4ccccc4-c4ccccc4)CC3)cc12		24.3 to 50		
